# Assay results as given in patent publication EP0099122A2, “Compositions comprising pepstatin and an histamine H2-receptor antagonist having an enhanced antiulcer activity” (Bristol-Myers Company, priority 1982, dated 1984).
# Marks after values point to notes of the source that are not given here.
# Experiments:
# Heidenhain Pouch Dog = experiment: Gastric antisecretory activity in the Heidenhain Pouch Dog; format: in vivo, dogs; conditions: 95% confidence limits in parentheses; for ED50: Canis lupus familiaris
# Protocol: Determination of Gastric Antisecretory […] in the Heidenhain Pouch Dog Prior to surgery, hematology and blood chemistry profiles are obtained and an assessment made as to the general health of selected female dogs. Dogs are vaccinated with Tissue […]-Moore) and housed in general animal quarters for four weeks' observation so incipient diseases may become apparent. Dogs are fasted with water ad libitum 24 hours prior to surgery. […] Subsequent anesthesia is maintained with methoxy- flurane (Pitman-Moore). A mid-line linea alba incision from xiphoid to umbilicus provides good exposure and ease of closure. The stomach is pulled up into the operative fields the greater curvature stretched out at multiple points and clamps placed along the selected line of incision. The pouch is made from the corpus of the stomach so that true parietal cell juice is obtained. About 30% of the corpus volume is resected. The cannula is made of light-weight, biologically-inert material such as nylon or Delrin with dimensions and attachments after DeVito and […] fJ. Appl. Physiol., 14, 138 (1959)]. Post operatively, dogs are medicated with antibiotics and an analgesic. They are allowed 2-3 months for recovery. Experiments are carried out in the following way: […] The dogs are placed in a sling and a saphenous vein cannulated for drug administration. Histamine as the base (100 μg/kg/hr) and chlorpheniramine maleate (0.25 mg/kg/hr) are infused continuously (in a volume of 6 mL/hr) with a Harvard infusion pump. Ninety minutes' infusion are allowed for the dogs to reach a steady state of acid output. At this time the drug or normal saline (control) is administered concomitantly with the secretagogue in a volume of 0.5 mL/kg over a 30 second period. When oral studies are to be carried out, the drug is administered via gastric gavage in a volume of 5 mL/kg. Infusion of the secretagogue is continued and 15 minute samples of the gastric juice are taken for 4.5 hours. Each sample is measured to the nearest 0.5 mL and titratable acidity is determined by titrating a 1 mL sample to pH 7.0 with 0.2N NaOH, using an Autoburet and an electrometric pH meter '(Radiometer). Titratable acid output is calculated in microequivalents by multiplying the volume in milliliters by the acid concentration in milliequivalents per liter. Results are expressed as percent inhibition relative to control readings. Dose response curves are constructed and ED50 values are calculated by regression analyses. From 3 to 5 dogs are used at each dose level and a minimum of three dosage levels are utilized for determination of a dose response curve.
# Gastric Fistula Rat = experiment: Gastric antisecretory activity in the Gastric Fistula Rat; format: in vivo, Long Evans rats; conditions: sc, 95% confidence limits in parentheses
# Protocol: Determination of Gastric Antisecretory Activity in the Gastric Fistula Rat
# Male Long Evans rats weighing about 240-260 grams at the time of cannula implantation are used. […] The fistula components are designed and the operative procedure is carried out exactly as described in the above reference. Post operatively the animals are individually housed in solid bottom cages with sawdust and are allowed food and water ad libitum throughout the entire recovery period. Animals are not used for test purposes for at least 15 days after the operative procedure.
# The animals are fasted but allowed water ad libitum for 20 hours before the testing procedure is to begin. Immediately prior to collection, the cannula is opened and the. stomach washed gently with 30-40 mL of warm saline or distilled water to remove any residual contents. The catheter is then screwed into the cannula in place of the plugging screw and the rat is placed in a clear plastic rectangular cage measuring 40 cm long, 15 cm wide and 13 cm high. The bottom of the cage has a slit approximately 1.5 cm wide and 25 cm long running down the center to accommodate the catheter which hangs through it. In this way the rat is not restricted and can move -freely about the cage during collection periods. The remainder of the assay is carried out as described by Ridley et al. [Research Comm. Chem. Path.
# Gastric secretions collected during the first hour after washing the stomach are discarded as they may be contaminated. For oral evaluation, the catheter is then removed from the cannula and replaced with the plugging screw. Water (2 mL/kg) is administered orally via gastric intubation and the animal is returned to the cage for 45 minutes. After this time the plugging screw is removed and replaced with a catheter to which a small plastic vial has been attached to collect the gastric secretions. A two hour sample is collected (this represents the control secretion), the catheter removed and.replaced with the plugging screw. The test drug is now administered orally in a volume of 2 mL/kg via gastric intubation. Forty-five minutes later the plugging screw is again removed, replaced with the catheter attached to a small plastic vial and another 2 hour sample is collected. The secretions in the second sample are compared to those of the control sample in order to determine thee effects of the test drug.
# When test compounds are to be evaluated parenterally, the animal is injected ip or sc with the test compound vehicle in a volume of 2 mL/kg immediately after discarding the initial 60 minute collection. A two hour sample is collected (control secretion) and the animals are injected either ip or sc with the test compound in a volume of 2 mL/kg. An additional two hour sample is collected and its secretions are compared to those of the control period to determing drug effects.
# The samples are centrifuged in a graduated tube for volume determination. Titratable acidity is measured by titrating a one mL sample to pH 7.0 with 0.02N NaOH, using an Autoburet and an electrometric pH meter (Radiometer). Titratable acid output is calculated in microequivalents by multiplying the volume in milliliters by the acid concentration in milliequivalents per liter.
# Results are expressed as percent inhibition relative to control readings. Dose response curves are constructed and ED50 values are calculated by regression analyses. At least three rats are used at each dosage level and a minimum of three dosage levels are utilized for determination of a dose response curve.
# gastric acid secretion = experiment: Inhibition of gastric acid secretion relative to cimetidine, various animal studies; format: in vivo; conditions: inhibitors of gastric acid secretion, oral route
# Protocol: Based on this potency difference, the oral dosage of the compounds of Examples 1 and 9 would be about 1/20 to 1/25 that of cimetidine, thus reducing the expected incidence of side effects. The usual oral dosage of cimetidine is 300 mg, given four times a day, while the usual dosage of the compounds of Examples 1 and 9 is about 12-15 mg, given four times a day. It was an object of this invention to further reduce the necessary dosage of the compounds of Formula I by the concomitant administration of a peptic activity- inhibitory amount of pepstatin. As will be shown below, such concomitant administration provides about a three-fold increase in potency compared with the administration of an equal amount of the compound of Formula I alone, thus permitting a further three-fold reduction in the dosage of the compound of Formula I.
smiles,measurement,setting,value
Nc1c(NCCCOc2cccc(CN3CCCCC3)c2)c(=O)c1=O [Example 1],ED50,Heidenhain Pouch Dog; INTRAVENOUS,0.024 µmol/kg
same,ED50,Heidenhain Pouch Dog; ORAL,0.16 µmol/kg
same,Potency Ratio [cimetidine = 1.0],Heidenhain Pouch Dog; INTRAVENOUS,87 (62-117)*
same,Potency Ratio [cimetidine = 1.0],Heidenhain Pouch Dog; ORAL,25 (14-40)
same,ED50,"Gastric Fistula Rat; Rattus norvegicus, read-out: ED50 sc",0.023 µmol/kg
same,Potency Ratio [cimetidine = 1.0],Gastric Fistula Rat,162 (77-328)*
same,times more potent than cimetidine,gastric acid secretion,20-25
